Assay results: patent US20210070748A1, “INHIBITORS OF BRUTONS TYROSINE KINASE” (Pharmacyclics LLC, priority 2015, published 2021)
pIC50: −log10 of the molar value.

Experiments:
EGFR = EGFR (Homo sapiens, UniProt P00533); test: Inhibition of a panel of kinases, in vitro HotSpot kinase assay: EGFR; assay type: biochemical; settings: D-compounds panel data; 1 μM ATP
Protocol: The degree of inhibition of a panel of kinases is determined using the in vitro HotSpot kinase assay (purified enzymes, ^33P-ATP, an appropriate substrate and 1 μM ATP).

JAK3 = target: T1, JAK3 (Homo sapiens, UniProt P52333); test: Inhibition of a panel of kinases, in vitro HotSpot kinase assay: JAK3; assay type: biochemical; settings: D-compounds panel data; 1 μM ATP; read-out: IC50 JAK3
T1 sequence (P52333 1-1124): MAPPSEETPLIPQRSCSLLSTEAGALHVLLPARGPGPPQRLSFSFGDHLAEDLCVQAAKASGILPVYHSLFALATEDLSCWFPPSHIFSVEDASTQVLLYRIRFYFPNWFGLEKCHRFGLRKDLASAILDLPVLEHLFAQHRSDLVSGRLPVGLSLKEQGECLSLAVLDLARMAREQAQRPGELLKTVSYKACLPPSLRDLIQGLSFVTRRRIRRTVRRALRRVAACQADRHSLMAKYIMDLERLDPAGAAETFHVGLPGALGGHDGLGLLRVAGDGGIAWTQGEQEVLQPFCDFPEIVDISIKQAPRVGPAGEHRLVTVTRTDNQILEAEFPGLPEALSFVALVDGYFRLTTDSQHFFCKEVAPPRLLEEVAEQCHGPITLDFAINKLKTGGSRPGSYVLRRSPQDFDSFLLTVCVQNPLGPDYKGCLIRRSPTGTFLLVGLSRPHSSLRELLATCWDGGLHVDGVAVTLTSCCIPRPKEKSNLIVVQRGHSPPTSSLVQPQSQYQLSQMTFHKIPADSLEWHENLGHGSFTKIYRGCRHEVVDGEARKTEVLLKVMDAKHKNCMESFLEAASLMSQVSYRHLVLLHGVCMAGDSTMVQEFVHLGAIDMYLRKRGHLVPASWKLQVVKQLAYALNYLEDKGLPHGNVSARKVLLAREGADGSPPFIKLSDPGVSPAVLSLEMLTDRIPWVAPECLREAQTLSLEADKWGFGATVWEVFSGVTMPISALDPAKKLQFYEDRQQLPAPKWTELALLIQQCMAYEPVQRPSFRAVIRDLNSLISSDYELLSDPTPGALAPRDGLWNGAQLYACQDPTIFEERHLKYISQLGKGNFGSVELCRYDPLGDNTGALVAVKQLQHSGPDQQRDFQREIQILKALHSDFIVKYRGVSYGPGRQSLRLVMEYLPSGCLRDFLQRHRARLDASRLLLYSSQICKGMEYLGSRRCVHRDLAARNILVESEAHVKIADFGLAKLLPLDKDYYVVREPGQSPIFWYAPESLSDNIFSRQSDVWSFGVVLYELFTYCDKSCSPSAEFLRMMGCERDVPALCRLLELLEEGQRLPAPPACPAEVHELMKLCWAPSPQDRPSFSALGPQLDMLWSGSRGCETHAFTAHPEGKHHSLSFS

Sequence of EGFR (P00533 25-1210): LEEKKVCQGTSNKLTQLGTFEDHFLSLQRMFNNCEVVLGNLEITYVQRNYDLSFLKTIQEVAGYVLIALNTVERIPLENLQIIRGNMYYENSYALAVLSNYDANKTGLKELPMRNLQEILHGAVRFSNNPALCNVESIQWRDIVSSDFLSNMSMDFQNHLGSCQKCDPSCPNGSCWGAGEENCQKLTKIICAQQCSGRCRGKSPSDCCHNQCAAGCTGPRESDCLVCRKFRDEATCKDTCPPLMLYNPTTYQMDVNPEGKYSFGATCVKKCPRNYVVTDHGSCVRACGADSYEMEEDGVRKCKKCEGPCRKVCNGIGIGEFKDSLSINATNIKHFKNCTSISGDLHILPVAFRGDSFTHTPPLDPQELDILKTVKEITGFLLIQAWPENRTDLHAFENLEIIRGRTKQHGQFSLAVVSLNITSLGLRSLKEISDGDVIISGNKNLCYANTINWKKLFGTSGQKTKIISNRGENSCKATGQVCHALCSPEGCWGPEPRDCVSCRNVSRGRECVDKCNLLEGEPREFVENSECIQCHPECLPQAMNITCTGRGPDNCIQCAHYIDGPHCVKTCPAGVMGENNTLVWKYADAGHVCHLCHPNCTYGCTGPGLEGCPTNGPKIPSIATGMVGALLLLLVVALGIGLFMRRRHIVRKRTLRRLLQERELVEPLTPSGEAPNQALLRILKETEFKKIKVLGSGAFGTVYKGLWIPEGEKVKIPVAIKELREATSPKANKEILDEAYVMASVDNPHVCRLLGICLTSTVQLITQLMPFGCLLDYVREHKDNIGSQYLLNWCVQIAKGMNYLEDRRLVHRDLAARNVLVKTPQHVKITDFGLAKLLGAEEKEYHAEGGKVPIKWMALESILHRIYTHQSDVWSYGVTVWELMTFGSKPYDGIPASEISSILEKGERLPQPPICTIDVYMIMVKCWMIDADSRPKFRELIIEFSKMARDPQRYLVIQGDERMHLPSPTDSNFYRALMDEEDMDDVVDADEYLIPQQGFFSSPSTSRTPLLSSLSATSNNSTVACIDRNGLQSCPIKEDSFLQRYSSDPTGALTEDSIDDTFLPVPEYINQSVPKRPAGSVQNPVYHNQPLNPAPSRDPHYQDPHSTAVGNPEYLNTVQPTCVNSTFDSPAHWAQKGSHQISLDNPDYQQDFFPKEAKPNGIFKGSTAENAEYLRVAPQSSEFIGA

Row | SMILES | pIC50 (EGFR) | pIC50 (JAK3)
1 | C[C@@H]1[C@H](NC(=O)N(C)C)CCCN1c1cnc(C(N)=O)c(Nc2cn[nH]c2)n1 [Example D-53, 5-[(2R,3R)-3-[(dimethylcarbamoyl)amino]-2-methylpiperidin-1-yl]-3-[(1H-pyrazol-4-yl)amino]pyrazine-2-carboxamide] | 5.00 to 6.00 | 5.00 to 6.00
2 | C[C@@H]1[C@H](NC(=O)c2ccc3c(c2)C(C)(C)CO3)CCCN1c1cnc(C(N)=O)c(Nc2cnn(C)c2)n1 [Example D-55, 5-[(2R,3R)-3-(3,3-dimethyl-2,3-dihydro-1-benzofuran-5-amido)-2-methylpiperidin-1-yl]-3-[(1-methyl-1H-pyrazol-4-yl)amino]pyrazine-2-carboxamide] | 5.00 to 6.00 | < 5.00
3 | CC1COc2cc(C(=O)N[C@@H]3CCCN(c4cnc(C(N)=O)c(Nc5cnn(C)c5)n4)[C@@H]3C)ccc2C1 (stereo partly drawn) [Example D-56, 3-[(1-methyl-1H-pyrazol-4-yl)amino]-5-[(2R,3R)-2-methyl-3-(3-methyl-3,4-dihydro-2H-1-benzopyran-7-amido)piperidin-1-yl]pyrazine-2-carboxamide] | 6.00 to 7.00 | < 5.00
4 | C[C@@H]1[C@H](NC(=O)c2cnn(C(C)(C)C)c2)CCCN1c1cnc(C(N)=O)c(Nc2cnn(C)c2)n1 [Example D-57, 5-[(2R,3R)-3-(1-tert-butyl-1H-pyrazole-4-amido)-2-methylpiperidin-1-yl]-3-[(1-methyl-1H-pyrazol-4-yl)amino]pyrazine-2-carboxamide] | 5.00 to 6.00 | 5.00 to 6.00
5 | CN(C)C(=O)N[C@@H]1CCCN(c2cnc(C(N)=O)c(Nc3ccc(C4(C)CCN(C5CCCC5)CC4)cc3)n2)[C@@H]1CO [Example D-58, 3-{[4-(1-cyclopentyl-4-methylpiperidin-4-yl)phenyl]amino}-5-[(2S,3R)-3-[(dimethylcarbamoyl)amino]-2-(hydroxymethyl)piperidin-1-yl]pyrazine-2-carboxamide] | 6.00 to 7.00 | 5.00 to 6.00
6 | CN(C)C(=O)N[C@H]1CCCN(c2cnc(C(N)=O)c(Nc3ccc(C4(C)CCN(C5CCCC5)CC4)cc3)n2)[C@H]1CO [Example D-59, 3-{[4-(1-cyclopentyl-4-methylpiperidin-4-yl)phenyl]amino}-5-[(2R,3S)-3-[(dimethylcarbamoyl)amino]-2-(hydroxymethyl)piperidin-1-yl]pyrazine-2-carboxamide] | 5.00 to 6.00 | < 5.00
7 | CN(C)C(=O)N[C@@H]1CCCN(c2cnc(C(N)=O)c(Nc3ccc(C4(C)CCN(C5CCCC5)CC4)cc3)n2)[C@H]1CO [Example D-60, 3-{[4-(1-cyclopentyl-4-methylpiperidin-4-yl)phenyl]amino}-5-[(2R,3R)-3-[(dimethylcarbamoyl)amino]-2-(hydroxymethyl)piperidin-1-yl]pyrazine-2-carboxamide] | 5.00 to 6.00 | 5.00 to 6.00
8 | CN(C)C(=O)N[C@H]1CCCN(c2cnc(C(N)=O)c(Nc3ccc(C4(C)CCN(C5CCCC5)CC4)cc3)n2)[C@@H]1CO [Example D-61, 3-{[4-(1-cyclopentyl-4-methylpiperidin-4-yl)phenyl]amino}-5-[(2S,3S)-3-[(dimethylcarbamoyl)amino]-2-(hydroxymethyl)piperidin-1-yl]pyrazine-2-carboxamide] | < 5.00 | < 5.00
9 | C[C@@H]1[C@H](NC(=O)c2ccc(C3CC3)cc2F)CCCN1c1cnc(C(N)=O)c(Nc2nc3c(s2)CN(C)CC3)n1 [Example D-62, 5-[(2R,3R)-3-(4-cyclopropyl-2-fluorobenzamido)-2-methylpiperidin-1-yl]-3-({5-methyl-4H,5H,6H,7H-[1,3]thiazolo[5,4-c]pyridin-2-yl}amino)pyrazine-2-carboxamide] | < 5.00 | < 5.00
10 | Cc1csc(Nc2nc(N3CCC[C@@H](NC(=O)c4ccc(C5CC5)cc4F)[C@H]3C)cnc2C(N)=O)n1 [Example D-63, 5-[(2R,3R)-3-(4-cyclopropyl-2-fluorobenzamido)-2-methylpiperidin-1-yl]-3-[(4-methyl-1,3-thiazol-2-yl)amino]pyrazine-2-carboxamide] | < 5.00 | < 5.00
11 | C[C@@H]1[C@H](NC(=O)c2ccc(C3CC3)cc2F)CCCN1c1cnc(C(N)=O)c(Nc2ccc(C3(C)CCN(C4CCCC4)CC3)cc2)n1 [Example D-66, 3-{[4-(1-cyclopentyl-4-methylpiperidin-4-yl)phenyl]amino}-5-[(2R,3R)-3-(4-cyclopropyl-2-fluorobenzamido)-2-methylpiperidin-1-yl]pyrazine-2-carboxamide] | 7.00 to 8.00 | 6.00 to 7.00
12 | Cc1cc(Nc2nc(N3CCC[C@@H](NC(=O)N(C)C)[C@H]3CO)cnc2C(N)=O)sn1 [Example D-67, 5-[(2S,3R)-3-[(dimethylcarbamoyl)amino]-2-(hydroxymethyl)piperidin-1-yl]-3-[(3-methyl-1,2-thiazol-5-yl)amino]pyrazine-2-carboxamide] | 6.00 to 7.00 | 5.00 to 6.00
13 | Cc1cc(Nc2nc(N3CCC[C@H](NC(=O)N(C)C)[C@@H]3CO)cnc2C(N)=O)sn1 [Example D-68, 5-[(2R,3S)-3-[(dimethylcarbamoyl)amino]-2-(hydroxymethyl)piperidin-1-yl]-3-[(3-methyl-1,2-thiazol-5-yl)amino]pyrazine-2-carboxamide] | < 5.00 | 5.00 to 6.00
14 | CN1CCN(C(=O)c2ccc(Nc3nc(N[C@H]4CC[C@H](NC(=O)N(C)C)CC4)cnc3C(N)=O)cc2)CC1 [Example D-69, 3-{[4-(4-methylpiperazine-1-carbonyl)phenyl]amino}-5-{[(1 r,4r)-4-[(dimethylcarbamoyl)amino]cyclohexyl]amino}pyrazine-2-carboxamide] | 6.00 to 7.00 | 6.00 to 7.00
15 | CN1CCN(C(=O)c2ccc(Nc3nc(N[C@H]4CC[C@H](NC(=O)c5ccc(C6CC6)cc5F)CC4)cnc3C(N)=O)cc2)CC1 [Example D-70, 3-{[4-(4-methylpiperazine-1-carbonyl)phenyl]amino}-5-{[(1 r,4r)-4-(4-cyclopropyl-2-fluorobenzamido)cyclohexyl]amino}pyrazine-2-carboxamide] | 6.00 to 7.00 | 6.00 to 7.00
16 | CN1CCN(C(=O)c2ccc(Nc3nc(N[C@H]4CC[C@@H](NC(=O)c5ccc(C6CC6)cc5F)CC4)cnc3C(N)=O)cc2)CC1 [Example D-71, 3-{[4-(4-methylpiperazine-1-carbonyl)phenyl]amino}-5-{[(1 s,4s)-4-(4-cyclopropyl-2-fluorobenzamido)cyclohexyl]amino}pyrazine-2-carboxamide] | 6.00 to 7.00 | 7.00 to 8.00
17 | CN1CCN(C(=O)c2ccc(Nc3nc(N[C@H]4CC[C@@H](NC(=O)N(C)C)CC4)cnc3C(N)=O)cc2)CC1 [Example D-72, 3-{[4-(4-methylpiperazine-1-carbonyl)phenyl]amino}-5-{[(1s,4s)-4-[(dimethylcarbamoyl)amino]cyclohexyl]amino}pyrazine-2-carboxamide] | 5.00 to 6.00 | 5.00 to 6.00
18 | C[C@@H]1[C@H](NC(=O)c2ccc(C3CC3)cc2F)CCCN1c1cnc(C(N)=O)c(Nc2ccc(N3CCOCC3)cc2)n1 [Example D-73, 5-[(2R,3R)-3-(4-cyclopropyl-2-fluorobenzamido)-2-methylpiperidin-1-yl]-3-{[4-(morpholin-4-yl)phenyl]amino}pyrazine-2-carboxamide] | 5.00 to 6.00 | < 5.00
19 | Cc1cc(Nc2nc(N3C[C@H](NC(=O)N(C)C)CC[C@@H]3C)cnc2C(N)=O)sn1 [Example D-74, 5-[(2S,5R)-5-[(dimethylcarbamoyl)amino]-2-methylpiperidin-1-yl]-3-[(3-methyl-1,2-thiazol-5-yl)amino]pyrazine-2-carboxamide] | 6.00 to 7.00 | 6.00 to 7.00
20 | Cc1cc(Nc2nc(N3C[C@@H](NC(=O)N(C)C)CC[C@H]3C)cnc2C(N)=O)sn1 [Example D-75, 5-[(2R,5S)-5-[(dimethylcarbamoyl)amino]-2-methylpiperidin-1-yl]-3-[(3-methyl-1,2-thiazol-5-yl)amino]pyrazine-2-carboxamide] | 6.00 to 7.00 | 6.00 to 7.00
21 | Cc1cc(Nc2nc(N3C[C@@H](NC(=O)N(C)C)CC[C@@H]3C)cnc2C(N)=O)sn1 [Example D-76, 5-[(2S,5S)-5-[(dimethylcarbamoyl)amino]-2-methylpiperidin-1-yl]-3-[(3-methyl-1,2-thiazol-5-yl)amino]pyrazine-2-carboxamide] | 5.00 to 6.00 | 5.00 to 6.00
